System: human airway smooth muscle (HASM) cells
Experiment: High-throughput traction microscopy (HTTM): RMS traction of HASM cell monolayers on gel in 96-well plates, before and after adding drug
Type: cell-based
Settings: for normalized traction (RMS traction after adding drug/RMS traction before adding drug): control drugs on zero-hit drug plate, FIG. 14; for change in cellular contraction (RMS traction) with increasing doses: FIG. 13, control drugs
Method: Acrylamide gels with 1.8 kPa stiffness and 200-μm thickness were made in 96-well plates, fluorescent markers were coated in a single layer (0.2 μm) onto gel surfaces, and the gel plates were mounted on a fluorescent microscope with motorized stage. On each gel, HASM cells from a single donor were cultured to near confluence. Each well was seeded with 20,000 cells and was serum deprived for 2 days. FIG. 9 illustrates an example layout of a multiwell plate. Imaging of the fluorescent markers included 10× magnification, at 37° C. Three rounds of imaging was performed per plate. For each imaging, two florescent images and one phase image was acquired. Since a common problem for circular shape dishes is rotation of wells, the multi-well plate is optionally a rectangular shape, so that one can easily find the same location in each well. Images of fluorescent markers in each well are taken before cell seeding. In addition, one can store the exact z-position of best sensor focus on each well. It is known that the multi-well plate may not be perfectly flat (e.g., there can be sagging in the middle of the plate). In addition, small changes in sensor depth focus can jeopardize image quality and in turn, traction calculation. Therefore, a prescanning step can aid in screening. After prescanning, wells are seeded with cells and a regular cell culture protocol can be followed. In example 3, a baseline-scanning typically takes fifteen minutes. Drugs can be added and the plates can be incubated for a certain time (e.g., in example 3, incubation occurred over a period of one hour). After incubation, a drug-scan can occur. Thus, three images (prescan, baseline-scan, and drug-scan) are acquired. FIG. 7 is a series of images illustrating a set of three example acquired images. At 700 is a fluorescent image of a bottom bead (0.5 μm). At 710 is a phase contrast image. At 720 is a fluorescent image of a yellow/green bead 0.2 μm. Root mean square values of the absolute traction forces were calculated before and after adding drugs. FIG. 10 illustrates an example process flow diagram 1000 for high-throughput screening using cellular contraction. For example, using the process illustrated in FIG. 10 and a 96 well plate, each scan takes approximately 15 minutes. Since each plate goes through a baseline scan, drug incubation (60 minutes), and a drug scan, it takes approximately 90 minutes per plate. Drug-induced changes in traction provide a simple and physiologically relevant index to identify hits, i.e., those molecules that appreciably reduce cellular traction forces. FIG. 8 is a series of images illustrating six absolute cell traction maps. At 800-850 are cell traction maps for 0.5% Dimethylsulfoxide (DMSO), 1% Fetal Bovine Serum (FBS), 10 μM Y27632, both before and after adding drugs. Y27632 is an inhibitor of the Rho-associated protein kinase, which is known to reduce cellular contraction. […] The treatment of 1% FBS increased RMS traction by 77% from the baseline. The treatment of 10 uM Y-27632 decreased RMS traction by 71% from the baseline. The ratio of RMS tractions of before and after drug treatment (or, normalized contraction) is an index to evaluate the effects of drugs in both stiffening and softening responses.

SMILES	normalized traction (RMS traction after adding drug/RMS traction before adding drug)	decrease in cellular contraction (increasing doses of isoproterenol, FIG. 13)	change in cellular contraction (RMS traction) with increasing doses	normalized traction (iso 50 μM, FIG. 12)	measured change in RMS traction (ratio of RMS tractions before and after drug treatment, normalized contraction) (10 μM Y27632, FIG. 8)	decrease of RMS traction from the baseline (10 uM Y-27632)
CC(C)NCC(O)c1ccc(O)c(O)c1 (centres unmarked) [isoproterenol]	decreased traction	more than 50%	did not appear dose dependent	below 0.5		
C[C@@H](N)[C@H]1CC[C@H](C(=O)Nc2ccncc2)CC1 [Y27632]	decreased traction		decreasing cellular contraction in a dose dependent manner		0.29	71%

Source: patent US9606108B2, “Deformable platforms for biological assays” (President and Fellows of Harvard College, priority 2011, dated 2017)
